Results taken from article PMC11882969 (Nature Communications, 2025).
Where “and” joins values, the source holds several entries; their conditions need not be identical. Equal values may be shown once. Read-outs that look alike come from different tables or passages of the source.

Biological target: hCB2 (Homo sapiens, UniProt P34972)
Experiment: bioSensAll ebBRET signaling profiling, hCB2
Format: cell-based
Set-up: host or cells: HEK293SL cells, transient PEI transfection
Conditions: for G13 hCB2 / G15 hCB2 / Gq hCB2 / Gs hCB2: raw signal; for EC50: read-out: EC50 [95% CI]; for Emax: normalized to CP-55,940

Sequence of hCB2 (P34972 whole entry): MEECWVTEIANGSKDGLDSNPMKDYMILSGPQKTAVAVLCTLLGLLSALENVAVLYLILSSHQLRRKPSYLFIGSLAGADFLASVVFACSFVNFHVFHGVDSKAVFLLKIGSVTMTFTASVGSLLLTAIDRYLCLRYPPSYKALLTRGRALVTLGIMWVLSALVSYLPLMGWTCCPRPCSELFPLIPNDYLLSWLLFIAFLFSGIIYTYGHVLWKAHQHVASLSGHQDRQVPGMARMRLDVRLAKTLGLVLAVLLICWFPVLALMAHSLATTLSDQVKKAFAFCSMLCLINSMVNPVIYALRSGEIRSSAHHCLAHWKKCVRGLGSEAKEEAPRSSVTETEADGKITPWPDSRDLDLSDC

COC(=O)C(C)(NC(=O)c1cc(C)n(-c2cccc(C(F)(F)F)c2)n1)c1cccs1 (stereo not drawn) [‘4042]
G13 hCB2 (Log [Compound] (M) -5.05788): 372 | G15 hCB2 (Log [Compound] (M) -5.05788): 871 | Gq hCB2 (Log [Compound] (M) -5.05788): 1851 | Gs hCB2 (Log [Compound] (M) -5.05788): 9765 | G13 hCB2 (Log [Compound] (M) -5.47381): 454 | G15 hCB2 (Log [Compound] (M) -5.47381): 873 | Gq hCB2 (Log [Compound] (M) -5.47381): 1786 | Gs hCB2 (Log [Compound] (M) -5.47381): 9415 | G13 hCB2 (Log [Compound] (M) -5.89285): 417 | G15 hCB2 (Log [Compound] (M) -5.89285): 919 | Gq hCB2 (Log [Compound] (M) -5.89285): 1814 | Gs hCB2 (Log [Compound] (M) -5.89285): 9299 | G13 hCB2 (Log [Compound] (M) -6.31878): 379 | G15 hCB2 (Log [Compound] (M) -6.31878): 911 | Gq hCB2 (Log [Compound] (M) -6.31878): 1840 | Gs hCB2 (Log [Compound] (M) -6.31878): 9425 | G13 hCB2 (Log [Compound] (M) -6.72585): 366 | G15 hCB2 (Log [Compound] (M) -6.72585): 869 | Gq hCB2 (Log [Compound] (M) -6.72585): 1780 | Gs hCB2 (Log [Compound] (M) -6.72585): 9320 | G13 hCB2 (Log [Compound] (M) -7.14267): 378 | G15 hCB2 (Log [Compound] (M) -7.14267): 865 | Gq hCB2 (Log [Compound] (M) -7.14267): 1798 | Gs hCB2 (Log [Compound] (M) -7.14267): 9628 | G13 hCB2 (Log [Compound] (M) -7.55284): 351 | G15 hCB2 (Log [Compound] (M) -7.55284): 908 | Gq hCB2 (Log [Compound] (M) -7.55284): 1838 | Gs hCB2 (Log [Compound] (M) -7.55284): 9429 | G13 hCB2 (Log [Compound] (M) -8): 336 | G15 hCB2 (Log [Compound] (M) -8): 870 | Gq hCB2 (Log [Compound] (M) -8): 1691 | Gs hCB2 (Log [Compound] (M) -8): 9233 | G13 hCB2 (Log [Compound] (M) -8.22186): 337 | G15 hCB2 (Log [Compound] (M) -8.22186): 953 | Gq hCB2 (Log [Compound] (M) -8.22186): 1914 | Gs hCB2 (Log [Compound] (M) -8.22186): 10090 | G13 hCB2 (Log [Compound] (M) -8.39794): 386 | G15 hCB2 (Log [Compound] (M) -8.39794): 901 | Gq hCB2 (Log [Compound] (M) -8.39794): 1867 | Gs hCB2 (Log [Compound] (M) -8.39794): 9624 | G13 hCB2 (Log [Compound] (M) -8.68787): 351 | G15 hCB2 (Log [Compound] (M) -8.68787): 876 | Gq hCB2 (Log [Compound] (M) -8.68787): 1937 | Gs hCB2 (Log [Compound] (M) -8.68787): 9194 | G13 hCB2 (Log [Compound] (M) -9.15521): 367 | G15 hCB2 (Log [Compound] (M) -9.15521): 910 | Gq hCB2 (Log [Compound] (M) -9.15521): 1811 | Gs hCB2 (Log [Compound] (M) -9.15521): 9196 | G13 hCB2 (Log [Compound] (M) -9.61989): 345 | G15 hCB2 (Log [Compound] (M) -9.61989): 880 | Gq hCB2 (Log [Compound] (M) -9.61989): 1785 | Gs hCB2 (Log [Compound] (M) -9.61989): 9153 | G13 hCB2 (Log [Compound] (M) -10.0969): 341 | G15 hCB2 (Log [Compound] (M) -10.0969): 856 | Gq hCB2 (Log [Compound] (M) -10.0969): 1790 | Gs hCB2 (Log [Compound] (M) -10.0969): 9401 | G13 hCB2 (Log [Compound] (M) -10.5529): 309 | G15 hCB2 (Log [Compound] (M) -10.5529): 917 | Gq hCB2 (Log [Compound] (M) -10.5529): 1878 | Gs hCB2 (Log [Compound] (M) -10.5529): 9283 | G13 hCB2 (Log [Compound] (M) -11.0177): 377 | G15 hCB2 (Log [Compound] (M) -11.0177): 837 | Gq hCB2 (Log [Compound] (M) -11.0177): 1802 | Gs hCB2 (Log [Compound] (M) -11.0177): 9354 | G13 hCB2 (Log [Compound] (M) -11.4949): 335 | G15 hCB2 (Log [Compound] (M) -11.4949): 822 | Gq hCB2 (Log [Compound] (M) -11.4949): 1866 | Gs hCB2 (Log [Compound] (M) -11.4949): 8977 | G13 hCB2 (Log [Compound] (M) -11.9208): 361 | G15 hCB2 (Log [Compound] (M) -11.9208): 904 | Gq hCB2 (Log [Compound] (M) -11.9208): 1780 | Gs hCB2 (Log [Compound] (M) -11.9208): 8976 | G13 hCB2 (Log [Compound] (M) -12.3979): 355 | G15 hCB2 (Log [Compound] (M) -12.3979): 851 | Gq hCB2 (Log [Compound] (M) -12.3979): 1758 | Gs hCB2 (Log [Compound] (M) -12.3979): 8977 | G13 hCB2 (Log [Compound] (M) -12.8861): 299 | G15 hCB2 (Log [Compound] (M) -12.8861): 809 | Gq hCB2 (Log [Compound] (M) -12.8861): 1793 | Gs hCB2 (Log [Compound] (M) -12.8861): 9246 | G13 hCB2 (Log [Compound] (M) -13): 267 and 381 | G15 hCB2 (Log [Compound] (M) -13): 851 and 879 | Gq hCB2 (Log [Compound] (M) -13): 1807 and 1732 | Gs hCB2 (Log [Compound] (M) -13): 9386 and 9439 | EC50 (hCB2 Barr2 + GRK2): 5.5 nM | EC50 (hCB2 Gi1): 2.7 nM | EC50 (hCB2 Gi2): 1.3 nM | EC50 (hCB2 GoB): 2.5 nM | Emax (read-out: Emax [95% CI], hCB2 Barr2 + GRK2): 33% | Emax (read-out: Emax [95% CI], hCB2 Gi1): 82% | Emax (read-out: Emax [95% CI], hCB2 Gi2): 70% | Emax (read-out: Emax [95% CI], hCB2 GoB): 61% | Emax (read-out: Emax [95% CI], hCB2 Gz): 56%
